Measurements reported in US5574026A, “Methods for inhibiting angiogenesis proliferation of endothelial or tumor cells and tumor growth” (American Cyanamid Company, priority 1994, dated 1996).
Values after ≈ are worked out from the molar mass of the structure shown. “Also recorded” adds a separate entry of the source. Structures can show the parent of a compound that is named as a salt.

Key:
SW620 = assay: Antiproliferative activity in human tumor cell lines, PROTOCOL 1 and PROTOCOL 2; format: cell-based; conditions: SW-620, colon tumor cell line SW620, 48 hours, read-out: IC50
Description: (§1) The antiproliferative activity of the compounds of Formula I in an Adult Bovine Aortic Endothelial (ABAE) cell line and in Human Tumor cells lines is evaluated in three similar assays that measure growth inhibition. The assays are identified as follows:
(§2) PROTOCOLS 1, 2, and 3 are described in greater detail hereinbelow. In general, according to PROTOCOLS 1 and 2, the target ABAE and/or Human Tumor cells are exposed to the compounds of Formula I for 48 hours. PROTOCOL 3 exposes ABAE cells to the compounds for 4 days. A detailed description of the Protocols is as follows:
(§3) Antiproliferative Activity in Human Tumor Cell Lines
(§4) The antiproliferative activity of the compounds of Formula I of the present invention is evaluated in a panel comprised of human tumor cell lines. The human tumor cell lines are from
(§5) 2) Colon tumors: MIP, CACO2, and SW620.
(§6) All cell lines are maintained in log phase in RPMI 1640 media, supplemented with 5% fetal calf serum, penicillin/streptomycin and 2 mM L-glutamine. Cultures are renewed after 20 passages with cells from a fresh stock of batch-frozen early passage cells. Cell lines are routinely checked for mycoplasma contamination (Genprobe). In a laminar flow hood, cells (1-5×10^4) are plated into 96-well microtiter plates in a volume of 0.1 ml/well with a bulk microtiter dispenser (Denley). […] At this concentration, dimethylsulfoxide has no effect on cell growth. Compounds are added using a Tomtec dispenser which simultaneously dispenses from one 96-well plate, containing the drug dilutions, to the plates containing the cells. After two days of continuous drug exposure, 50% cold trichloroacetic acid (TCA) is added to 10% final concentration to fix the cells, and after 60 minutes at 4° C., the TCA is aspirated and the plates are washed 5 times with deionized water using a microtiter plate washer. The number of cells on the plate are quantitated using a protein dye-binding assay (Monks et al., 1991). A 0.4% solution of the dye, sulforhodamine B, in […] is added to the plates, and the plates are washed 5 times with 1% glacial acetic acid using the automatic plate washed. The bound stain is solubilized with 0.1 ml of 10 mMTris base. The optical densities are read from an automatic spectrophotometric plate reader (Dynatech) directly to a main frame computer (VAX 8600).
(§7) Positive controls, that include standard chemotherapeutic drugs (i.e., adriamycin, cisplatin, etc.), are included in every experiment.
(§8) Background optical density measurements (complete media--cells, and complete media+drug-cells) are automatically subtracted from the appropriate control and test wells. Mean values and standard errors are determined from duplicate wells. A measure is also made of the optical density at time when the drugs are added. The number of cells after treatment (P), as % of control, is calculated for every concentration of drug, as follows: [formula] wherein: T is optical density measurement for treated cells after 48 hours;
(§9) C is optical density measurement for untreated cells after 48 hours;
(§10) Co is optical density measurement for cells at the time of drug addition.
(§11) IC50 of Growth inhibition is calculated from the sets of P values using the RS-1 data package (BBN Software).
(§12) Antiproliferative Activity in Human Tumor and Adult Bovine Aortic Endothelial Cell Lines (ABAE)
(§13) The antiproliferative activity of the compounds of Formula I is evaluated in a panel comprised of human tumor cell lines as listed in Protocol 1 as well as an adult bovine aortic endothelial cell line (ABAE). This assay is a modification of PROTOCOL 1. The modifications include:
(§14) 1) each concentration for each compound is tested in a single well;
(§15) 2) compounds are tested at 20, 4, 0.8, 0.16 microgram/ml and additionally in some experiments at 100 and 0.32 microgram/ml;
(§16) 3) samples are pipetted into a 96-well plate for each of the cell lines by a Beckman Biomek 1000 SL robot; […]

Human Tumor cell lines = assay: Antiproliferative activity in panel of human tumor cell lines (average / panel as a whole), PROTOCOL 1 and PROTOCOL 2; format: cell-based; conditions: for IC50: Homo sapiens, average over the tumor cell lines tested
Description: as §1, §2, §3, §4, §5, §6, §7, §8, §9, §10, §11, §12, §13, §14, §15, §16

[1] = test system: Adult Bovine Aortic Endothelial (ABAE) cell line; assay: Antiproliferative activity in Adult Bovine Aortic Endothelial (ABAE) cell line, PROTOCOL 3 (4 days, cell count); format: cell-based
Description: as §1, §2
Antiproliferative Activity in Adult Bovine Aortic Endothelial (ABAE) Cell Line
ABAE cells are grown in DMEM media (Mediatech, Washington, D.C.) supplemented with 10% calf serum (Hyclone). ABAE cells are plated in 24-well dishes at 8,000 cells/well, followed by the addition of increasing concentrations of 7-halogen-9-[hydrogen or [(substituted glycyl)amido]]-6-demethyl-6-deoxytetracycline. After four days, the cells are detached and counted. […] The growth inhibition (I) as % of control is calculated as follows: [formula] wherein: Nc is the number of cells in untreated wells;
Nt is the number of cells in treated wells;
No is the number of plated cells.
IC50 of growth inhibition is determined from the sets of I values plotted by Kaleidograph software (Abelbeck Software).
Table 1 presents the results depicting the antiproliferative activity of the compounds of Formula I against an ABAE cell line, as evaluated by PROTOCOL 2 and PROTOCOL 3. The results are presented in terms of IC50 and are as follows.

tumor = conditions: Teicher et al; used in conjunction with cancer chemotherapy or radiation therapy; cited from earlier work
angiogenesis = conditions: Brem et al; in words; cited from earlier work

**Q.** With `CN(C)[C@@H]1C(O)=C(C(N)=O)C(=O)[C@@]2(O)C(O)=C3C(=O)c4c(O)ccc(Br)c4CC3CC12` (stereo partly drawn) [Example 8, [4S-(4α,12aα)]-7-Bromo-4-(dimethylamino)-1,4,4a,5,5a,-6,11,12a-octahydro-3,10,12,12a-tetrahydroxy-1,11-dioxo-2-naphthacenecarboxamide sulfate] as the molecule, how does the IC50 (SW620) read?
**A.** The IC50 was 1.4 µg/mL.

**Q.** And the “inhibition of cell growth at the highest concentrations” value (Human Tumor cell lines; FIG. 2, 6 human tumor cell lines, in words)?
**A.** Its value is “no 100% inhibition of cell growth”.

**Q.** What about the IC50 (Human Tumor cell lines) of the same molecule?
**A.** Its IC50 is 1.3 µg/mL.

**Q.** What about the dead floating cells (Human Tumor cell lines; even at the highest concentration) of the same molecule?
**A.** The dead floating cells was “not observed”.

**Q.** Which IC50 (SW620) does the source give for `CN(C)[C@@H]1C(O)=C(C(N)=O)C(=O)[C@@]2(O)C(O)=C3C(=O)c4c(O)ccc(I)c4CC3CC12` (stereo partly drawn) [Example 10, [4S-(4α,12aα)]-4-(Dimethylamino)-4,4,4a,5,5a,6,11,12a-octahydro-3,10,12,12a-tetrahydroxy-7-iodo-1,11-dioxo-2-naphthacenecarboxamide] here?
**A.** The IC50 was 1.2 µg/mL (≈ 2.22 µM).

**Q.** And the IC50 (Human Tumor cell lines)?
**A.** The IC50 was 1.7 µg/mL (≈ 3.15 µM).

**Q.** For `CN(C)c1ccc(O)c2c1C[C@H]1C[C@H]3[C@H](N(C)C)C(O)=C(C(N)=O)C(=O)[C@@]3(O)C(O)=C1C2=O` [Minocycline, reference compound], which IC50 ([1]; Bos taurus, 96 h, ABAE cells, PROTOCOL 3, 4 days, read-out: IC50 PROTOCOL 3) is on record?
**A.** Its IC50 is ≥ 50 µg/mL.

**Q.** And the “activity upon incubation with cells” value ([1]; FIG. 1, 4 day assay (Protocol 3), in words)?
**A.** Its value is “losing its activity upon incubation with cells”.

**Q.** What about the “number of metastases with chemotherapy or radiation therapy” value (tumor) of the same molecule?
**A.** The value was “the number of metastases is reduced”.

**Q.** What about the “tumor growth with chemotherapy or radiation therapy” value (tumor) of the same molecule?
**A.** The value was “tumor growth is decreased”.

**Q.** What about the inhibition of angiogenesis (angiogenesis) of the same molecule?
**A.** Its inhibition of angiogenesis is “inhibits angiogenesis to an extent comparable to that of the combination therapy of heparin and cortisone; also recorded: useful as inhibitors of angiogenesis”.
